In US6713477B1, “Hydroxamic acid derivatives” (Sumitomo Pharmaceuticals Company, Limited, priority 2000, dated 2004):

How the values were obtained:
[1] = biological target: T1, MMP-13 (Matrix Metalloproteinase-13, Collagenase-3) (Homo sapiens, UniProt P45452); experiment: Inhibition assay against MMP-13 (fluorescent MCA-labeled substrate); type: biochemical; settings: Table 10; active MMP-13 at 5 nM, 37° C., 1.5 hours; read-out: IC50 MMP13
T1 construct: made in house; host or cells: E. coli BL21 (DE3), pET11a
Source text: To subclone C-terminal truncated form of procollagenase-3 (proMMP-13) cDNA (J.Biol.Chem., 269(24), 16766-16773 (1994)), two synthetic oligonucleotide primer (5′-[…]-3′ and 5′-[…]-3′: the former incorporates sequences for a unique NdeI site (underlined) including initial methionine, and the latter has sequences for a stop codon and BamHI site (underlined)) were used with human chondrocyte cDNA library (CLONTECH) in PCR. With these primers and Pfu DNA polymerase (STRATAGENE) in PCR, 767 bp fragment was generated, which encodes 84 amino acid prosequence and 164 amino acids of mature MMP-13. The fragment was digested with NdaI and BamHI, ligated into the NdeI and BamHI sites of pET11a (STRATAGENE), transformed in E.coli BL21 (DE3) and cultured. The crude cell extract was prepared as described in Biochemistry. The extract was dialyzed against 20 mM Tris-HCl(pH7.2)/5 mM CaCl2/0.02% NaN3 and applied to a SP-Sepharose HP column (1.6×10 cm, Amersham-Pharmacia Biotech), and elution was performed with 50 mL linear gradient of 0 to 0.3 M NaCl (partially purified proMMP-13 was eluted at 0.2 M approximately). The fraction was dialyzed against 20 mM Tris-HCl(pH7.9)/5 mM CaCl2,/200 mM (NH4)2SO4/0.02% NaN3 and applied to a Phenyl Sepharose HP column (1.6×5 cm, Amersham-Pharmacia Biotech), and elution was performed with 20 mL linear gradient of 0.2 to 0 M (NH4)2SO4 (pure proHMP-13 was eluted at 50 mM approximately). The fraction was concentrated by YM-5 ultrafiltration membrane and activated with 4-aminophenylmercuric acetate and active MMP-13 was separated from propeptide fragments by gel filtration chromatography as described in Biochemistry.
(§1) Enzymatic assays were performed in accordance with C. G. Knight's method (FEBS Lett., 296(3), 263-266 (1992)). The fluorescent MCA-labeled substrate, (7-methoxycumaline-4-yl)-Pro-Leu-Gly-Leu-L-[N-(2,4-dinitrophenyl)-L-2,3-diaminopropionyl]-Ala-Arg-NH2 (Peptide Institute. Inc.) was used for measuring the kinetics of inhibition for each tested compound.
(§2) The substrate was incubated at 37° C. for 1.5 hours (MMP-1; for 24 hours) with active MMP (at 20 nM, except MMP-13 at 5 nM) and a test compound in assay buffer containing 100 mM Tris-HCl (pH7.5), 10 mM CaCl2, 100 MM NaCl and 0.05% Brij-35.

[2] = biological target: T2, MMP-3 (Matrix Metalloproteinase-3, Stromelysin-1) (Homo sapiens, UniProt P08254); experiment: Inhibition assay against MMP-3 (fluorescent MCA-labeled substrate); type: biochemical; settings: Table 10; active MMP at 20 nM, 37° C., 1.5 hours; read-out: IC50 MMP3
T2 construct: C-terminal truncated form of human prostromelysin cDNA; made in house; host or cells: E. coli
T2 sequence (P08254 100-272 limits assumed): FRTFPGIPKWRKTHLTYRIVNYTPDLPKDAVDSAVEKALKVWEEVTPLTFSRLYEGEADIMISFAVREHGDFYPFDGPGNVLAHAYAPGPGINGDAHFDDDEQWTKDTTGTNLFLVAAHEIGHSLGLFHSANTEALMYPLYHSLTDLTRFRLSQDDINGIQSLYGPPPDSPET
Description: C-terminal truncated form of human prostromelysin cDNA (proMMP-3, cDNA sequence in Nature, 348, 699-704 (1990)) was subcloned, expressed in E.coli and purified as described previously (Biochemistry 30, 6476-6483 (1991)). Activation of proMMP-3 was achieved by treatment with 1 mM 4-aminophenylmercuric acetate at 37° C. for 60 min.
as §1, §2

Row | IC50 [1] [nM] | IC50 [2] [nM] | SMILES
1 | 5300 | 31600 | COc1cccc(C2SC(CC(=O)NO)C(=O)N2CC(Cl)CCCCl)c1[N+](=O)[O-] (stereo not shown) [Example 10]
2 | 13200 | > 50000 | COc1ccc(C2SC(CC(=O)NO)C(=O)N2CCCc2ccccc2)cc1 (stereo not shown) [Example 13]
3 | > 50000 | 1000 | COc1cccc(C2SC(CC(=O)NO)C(=O)N2CCc2ccc(O)cc2)c1OC (stereo not shown) [Example 19]
4 | 759 | > 10000 | CCCCC#Cc1ccc(C2SCC(=O)N2C(CC(C)C)C(=O)NO)cc1 (stereo not shown) [Example 42]
5 | 134 | 894 | CC(C)CC(C(=O)NO)N1C(=O)CSC1c1ccc(-c2ccc(Cl)cc2)o1 (stereo not shown) [Example 46]
6 | 249 | 9070 | COc1ccc(C2SCC(=O)N2C(CCSC)C(=O)NO)cc1F (stereo not shown) [Example 71]
7 | 62 | 3800 | CC(C)CC(C(=O)NO)N1C(=O)CSC1c1ccc(-c2cc(C(F)(F)F)nn2C)s1 (stereo not shown) [Example 88]
8 | 231 | 6720 | COc1ccc(C2SCC(=O)N2C(COC(C)(C)C)C(=O)NO)cc1 (stereo not shown) [Example 105]
9 | 43 | 599 | COc1ccc(C2SCC(=O)N2C(Cc2ccc(OC(C)(C)C)cc2)C(=O)NO)cc1 (stereo not shown) [Example 109]
10 | 128 | 2550 | O=C(NO)C(Cc1c[nH]c2ccccc12)N1C(=O)CSC1c1ccc(Cl)cc1 (stereo not shown) [Example 121]
11 | 56 | 1140 | CC(C)CC(C(=O)NO)N1C(=O)CSC1c1ccc(Cl)cc1 (stereo not shown) [Example 130]
12 | 64 | 1270 | CCCC(C(=O)NO)N1C(=O)CSC1c1ccc(Oc2ccccc2)cc1 (stereo not shown) [Example 143]
13 | 112 | 1140 | CCC(C)C(C(=O)NO)N1C(=O)CSC1c1ccc(OC)c(F)c1 (stereo not shown) [Example 175]
14 | 100 | 1060 | CCC(C)C(C(=O)NO)N1C(=O)CSC1c1ccc(SC)cc1 (stereo not shown) [Example 176]
15 | 119 | 1890 | CCCCC(C(=O)NO)N1C(=O)CSC1c1cc2ccccc2o1 (stereo not shown) [Example 195]
16 | 108 | 895 | COc1ccc(C2SC(CC(=O)NCc3cccnc3)C(=O)N2C(Cc2ccccc2)C(=O)NO)cc1 (stereo not shown) [Example 211]
17 | 56 | 422 | CC(C)CC(C(=O)NO)N1C(=O)C(CC(=O)NCc2ccco2)SC1c1ccc(Cl)cc1 (stereo not shown) [Example 218]
18 | 35 | 274 | COc1ccc(C2SC(CC(=O)NC3CCCCC3)C(=O)N2C(CC(C)C)C(=O)NO)cc1 (stereo not shown) [Example 239]
19 | 106 | 1200 | Cc1cc(NC(=O)CC2SC(c3ccc(Cl)cc3)N(C(Cc3ccc(OC(C)(C)C)cc3)C(=O)NO)C2=O)no1 (stereo not shown) [Example 255]
20 | 23 | 267 | COC(C)(C)NC(=O)CC1SC(c2ccc(Cl)cc2)N(C(Cc2ccc(OC(C)(C)C)cc2)C(=O)NO)C1=O (stereo not shown) [Example 257]
21 | 66 | 850 | C=CCNC(=O)CC1SC(c2ccc(Cl)cc2)N(C(CC(C)C)C(=O)NO)C1=O (stereo not shown) [Example 262]
22 | 37 | 614 | CCCNC(=O)CC1SC(c2ccc(Cl)cc2)N(C(Cc2ccc(OC(C)(C)C)cc2)C(=O)NO)C1=O (stereo not shown) [Example 283]
23 | 122 | 987 | CCCN(CCC)C(=O)CC1SC(c2ccc(Cl)cc2)N(C(CC(C)C)C(=O)NO)C1=O (stereo not shown) [Example 306]
24 | 26 | 442 | COCCNC(=O)CC1SC(c2ccc(Cl)cc2)N(C(Cc2ccc(OC(C)(C)C)cc2)C(=O)NO)C1=O (stereo not shown) [Example 316]
25 | 63 | 733 | CNC(=O)CC1SC(c2ccc(OC)cc2)N(C(Cc2ccc(OC(C)(C)C)cc2)C(=O)NO)C1=O (stereo not shown) [Example 324]

Row | IC50 [1] [nM] | IC50 [2] [nM] | SMILES
26 | 11 | 155 | COCCCNC(=O)CC1SC(c2ccc(OC)cc2)N(C(Cc2ccc(OC(C)(C)C)cc2)C(=O)NO)C1=O (stereo not shown) [Example 329]
27 | 66 | 745 | COc1ccc(C2SC(CC(=O)NCCCN3CCCCC3C)C(=O)N2C(Cc2ccc(OC(C)(C)C)cc2)C(=O)NO)cc1 (stereo not shown) [Example 330]
28 | 70 | 794 | COc1ccc(C2SC(CC(=O)NCc3ccco3)C(=O)N2C(Cc2ccc(OC(C)(C)C)cc2)C(=O)NO)cc1 (stereo not shown) [Example 333]
29 | 53 | 446 | COc1ccc(C2SC(CC(=O)Nc3ccccn3)C(=O)N2C(Cc2ccc(OC(C)(C)C)cc2)C(=O)NO)cc1 (stereo not shown) [Example 361]
30 | 35 | 1200 | COc1ccc(/C=C2\Sc3cc(Cl)ccc3N(CC(=O)NO)C2=O)cc1 [Example 370]
31 | 36 | 880 | COc1ccc(/C=C2\Sc3ccc(C(F)(F)F)cc3N(CC(=O)NO)C2=O)cc1 [Example 371]
32 | 16000 | > 50000 | O=C(CN1C(=O)C(=Cc2ccccn2)Sc2ccccc21)NO [Example 378]
33 | 1600 | 23000 | O=C(CN1C(=O)/C(=C/c2ccccc2)Sc2ccccc21)NO [Example 388]
34 | 29000 | > 50000 | O=C(CN1C(=O)/C(=C/c2ccc(-c3ccc(Br)cc3)o2)Sc2ccccc21)NO [Example 389]
35 | 257 | 3230 | O=C(CN1C(=O)C(Cc2ccc(O)cc2)Sc2ccccc21)NO (stereo not shown) [Example 406, 2H-2-(4-Hydroxybenzyl)-1,4-benzothiazin-3(4H)-one-4-yl-acetic Acid N-Hydroxyamide]
36 | 24 | 433 | Cc1ccc(CC2Sc3ccccc3N(CC(=O)NO)C2=O)cc1 (stereo not shown) [Example 407, 2H-2-(4-Methylbenzyl)-1,4-benzothiazin-3(4H)-one-4-yl-acetic acid N-hydroxyamide]
37 | 12 | 279 | O=C(CN1C(=O)C(Cc2ccc(Oc3ccccc3)cc2)Sc2ccccc21)NO (stereo not shown) [Example 409]
38 | 63 | 514 | O=C(CN1C(=O)C(Cc2ccc(-c3ccccc3)cc2)Sc2ccccc21)NO (stereo not shown) [Example 419]
39 | 4810 | > 10000 | CCN(CC)c1ccc(CC2Sc3ccccc3N(CC(=O)NO)C2=O)cc1 (stereo not shown) [Example 422]
40 | 1220 | 5130 | O=C(CN1C(=O)C(Cc2cccnc2)Sc2ccccc21)NO (stereo not shown) [Example 423]
41 | 38 | 375 | O=C(CN1C(=O)C(Cc2ccc(Br)cc2)Sc2ccccc21)NO (stereo not shown) [Example 426]
42 | 3600 | 5620 | COc1ccc(CC2Sc3cccc(Cl)c3N(CC(=O)NO)C2=O)cc1 (stereo not shown) [Example 429]
43 | 13 | 238 | COc1ccc(CC2Sc3cc(C)c(C)cc3N(CC(=O)NO)C2=O)cc1 (stereo not shown) [Example 431]
44 | 671 | 938 | COc1ccc(CC2Sc3ccccc3N([C@H](C(=O)NO)C(C)C)C2=O)cc1 (stereo partly shown) [Example 436]
45 | 375 | 1660 | COc1ccc(CC2Sc3ccccc3N([C@H](C)C(=O)NO)C2=O)cc1 (stereo partly shown) [Example 438]
46 | 118 | 2960 | COc1ccc(NC(=O)CC2Sc3ccccc3N(CC(=O)NO)C2=O)cc1 (stereo not shown) [Example 441, 2H-2-[N′-(4-Methoxyphenyl)-carbamoylmethyl]-1,4-benzothiazin-3(4H)-one-4-yl-acetic Acid N-Hydroxylamide]
47 | 19 | 270 | COc1ccc(C2SC(CC(=O)NC(C)C)C(=O)N2C(Cc2ccccc2)C(=O)NO)cc1 (stereo not shown) [Example 479]
48 | 17 | 301 | CC(C)CC(C(=O)NO)N1C(=O)C(CC(=O)NCc2ccco2)[S+]([O-])C1c1ccc(Oc2ccc(Cl)cc2)cc1 (stereo not shown) [Example 739]
49 | 12 | 459 | COCCNC(=O)CC1C(=O)N(C(CC(C)C)C(=O)NO)C(c2ccc(Oc3ccc(Cl)cc3)cc2)[S+]1[O-] (stereo not shown) [Example 740]
50 | 4.9 | 53 | COc1ccc(CC2Sc3cc(C(=O)N[C@H](CO)CC(C)C)ccc3N(CC(=O)NO)C2=O)cc1 (stereo partly shown) [Example 865]
